# Measured values published in a melting point compilation (Tetko et al.; mined from patent text by program, amines drawn as free bases though some values may be those of a salt).
row,Compound,melting point [°C]
1,FC(F)(F)c1ccnc(Oc2ccc(CCOc3ncnc4nccnc34)cc2)c1,172 to 173
2,O=C1Nc2cc(Cl)ccc2/C1=C\c1cccc(C(F)(F)F)c1,157 to 160
3,Cc1nnc2n1-c1sc(CC(=O)O)cc1C(c1ccccc1Cl)=NC2C (stereo not drawn),222 to 225
4,CCOc1cccc(C(c2ncccc2OC)n2nc(C(=O)O)c3c2-c2ccc(OCc4cncnc4)cc2CC3)c1 (stereo not drawn),222 to 225
5,O=[N+]([O-])c1ccc2[nH]cc(Cc3cccnc3)c2c1,154 to 156
6,O=S(=O)(NC1CCOCC1)c1ccc(Cl)cc1,127 to 129
7,CCOC(C)OC(C)(C)CCCC(C)C1CCC2C3CC=C4CC(O)CC(O)C4(C)C3CCC12C (stereo not drawn),128 to 130
8,CC(=O)Nc1nc(Cl)c2ncn([C@@H]3C[C@H](OC(C)=O)[C@@H](O)[C@H]3O)c2n1 (racemic),198
9,COc1ccc(NC(=O)c2ccc(F)c(F)c2)cc1NC(=S)Nc1cccc(C(=O)O)c1,218 to 220
10,CC(C)(C)c1nc2cc(Cl)c([N+](=O)[O-])cc2s1,65 to 69
11,COc1ccc(CNc2nc(C)nc(C)c2Cl)cc1O,165 to 168
12,CC(=O)Nc1ncc(C(C)=O)cc1C,115 to 116
13,CCN1C(=O)C(F)N=C(c2ccccc2)c2cc(Cl)ccc21 (stereo not drawn),156 to 158
14,O=C1c2ccccc2C(=O)N1CC(=O)N1c2ccccc2N(Cc2ccccc2)C(=O)C(Cc2ccccc2)C1c1ccccc1 (stereo not drawn),255 to 256
15,Cn1c(=O)[nH]c(=O)n(-c2ccc(F)cc2Cl)c1=O,225 to 228
16,CC1=C(Cl)C(=O)c2ccccc2C1=O,152 to 154
17,COc1cccc(F)c1CCl,87 to 89
18,CCCc1c(OCCCCCOc2ccccc2CCC(=O)O)ccc2c1OCC2=O,101 to 102
19,Cc1cccc(-c2nc3c(C)cccn3c2-c2ccnc(-c3ccc(CN4CCOCC4)cc3)c2)n1,122
20,Cc1ccc(-c2nc(C)c(C)c(=O)[nH]2)cc1,250
21,O=C(OCc1ccccc1)N1CC[C@@H](Oc2ccc([N+](=O)[O-])cc2)[C@H](O)C1 (relative stereo),179 to 180
22,O=C(Nc1ccc2ccc(Cl)nc2n1)c1ccccc1,198

row,Compound,melting point [°C]
1,O=C(O)c1cn(CCF)c2cc(F)c(F)cc2c1=O,249 to 251
2,O=C(O)/C=C/n1cnc2ccc(OCCO)cc2c1=O,247 to 248
3,COC(=O)c1ccc(-c2nnc(C)o2)s1,142 to 145
4,CCc1[nH]nc2c1C(=O)c1c(NC(=O)NN3CCN(C)CC3)cccc1-2,244 to 246
5,Oc1ccccc1CNCCCCCCNCc1ccccc1O,72 to 73
6,FC(F)Oc1ccc(-c2nc3ccc(OC(F)(F)F)cc3[nH]2)cc1,185 to 187
7,CCCCCCCCCCCCCCCCn1c(-c2ccc(Cl)c(N)c2)nnc1-c1ccc(Cl)c(N)c1,88 to 90
8,COc1c(N2CCC(CN)(CF)C2)c(F)cc2c(=O)c(C(=O)O)cn(C3CC3)c12 (stereo not drawn),188 to 190
9,COc1cc2[nH]c(N(C)Cc3cccc(Oc4ncccn4)c3)nc(=O)c2c(C)c1OC,224 to 228
10,COc1cc(N)c(Cl)cc1C(=O)N[C@H]1CCN(CCNc2nc3ccccc3[nH]2)C[C@H]1OC (relative stereo),206
11,CCOCCOc1ccc(C(C)C)c(NC(=O)CN2CCN(CCCSc3nc4ccccc4o3)CC2)c1C(C)C,99 to 100
12,COc1cccc2c1C13CCN(C(=O)C4CCC4)C(C2)C1CCC(=O)C3 (stereo not drawn),125 to 126
13,CCN1CCN(CC/C=C/c2cc3ncc(C#N)c(Nc4cc(OC)c(Cl)cc4Cl)c3cc2OC)CC1,129 to 131
14,OC1(CNCc2ccccc2)CCN(CCCc2c[nH]c3ccc(-n4cnnc4)cc23)C1 (stereo not drawn),> 61
15,CC1CC(C)CN(C(=O)c2ccccc2)C1 (stereo not drawn),107 to 109
16,CC(C)(O)c1cc(C(F)(F)F)cc(C(F)(F)F)c1,59 to 60
17,CCCCCc1cc2c(nc(O)n2CCCNC(C)=O)c(N)n1,189 to 191
18,COc1cccnc1CCCCNc1nc(=O)c(C(O)c2ccc(C)nc2)c[nH]1 (stereo not drawn),82
19,CCON1C(=O)c2ccccc2C1=O,95 to 97
20,CN(C)C=CC(=O)c1ccc(-c2ccc(N(c3ccccc3)c3ccccc3)cc2)cc1,166 to 167
21,COC(=O)CC(O)CC(O)C=Cc1c2c(nn1-c1ccc(F)cc1)C(Cc1ccc(-c3ccccc3)cc1)CCC2 (racemic),118 to 119
22,COc1cc(OC)cc(C2CC=CCC2[N+](=O)[O-])c1 (stereo not drawn),73 to 75

row,Compound,melting point [°C]
1,Cc1cc(-c2cccc(C(F)(F)F)c2)n2ccnc2n1,170 to 172
2,O=C(O)c1cccc(-n2c(-c3ccccc3)cc3c2-c2ccccc2CC3)c1,225 to 228
3,COc1cccn2c(=O)c3c(nc12)C(=Cc1ccccc1Cl)CC3,247 to 248
4,CCOC(=O)Cc1ccc(-c2nc(COc3cc(CO)on3)c(C)o2)cc1,116 to 117
5,CCN(CC)CCNC(=O)c1cc(Cl)c(N)cc1OC1OCCO1,93 to 95
6,COC(=O)CCCc1cc2cc(Cl)ccc2n1S(=O)(=O)c1c(C)noc1C,96 to 98
7,COc1ccc(/C=C(\C#N)c2ccccc2C(F)(F)F)cc1OC1CCCC1,96 to 98
8,Cc1nc(C)n2c1CN=C(c1ccccc1Cl)c1cc(Cl)ccc1-2,175 to 177
9,CC1CCC(NC(=O)NS(=O)(=O)c2ccc(CCNC(=O)N3C(=O)c4ccccc4C3C)cc2)CC1 (stereo not drawn),212 to 214
10,COc1ccc(N2C(=O)O[C@H](COc3ccc(C#N)cc3)[C@@H]2C)cc1,127 to 128
11,COc1cccc2c(=O)c3ccc(Cl)cc3oc12,201 to 202
12,O=S(=O)(NCCCOc1cccc2nccn12)c1ccccc1,155 to 156
13,COc1ccc([C@@H](CO)[C@H]2CCCCN2C(=O)OC(C)(C)C)cc1,115 to 117
14,Cc1cnc(NCCc2ccccn2)c(=O)n1NC(=O)CCc1cccc(Cl)c1,201 to 207
15,O=C(OCc1ccccc1)c1ccc(OCc2cccc(COc3ccc(C(=O)OCc4ccccc4)cc3)c2)cc1,92.5 to 93.8
16,CC(C)(C)[Si](C)(C)Oc1ccc2c(c1)OC(c1ccc(O)cc1)c1c-2sc2cc(O[Si](C)(C)C(C)(C)C)ccc12 (stereo not drawn),174 to 175
17,CC(C)(O)c1ccc(-c2cnc3c(n2)N(CCN2CCOCC2)CC(=O)N3)cn1,239 to 241
18,CCCN(CCCCc1c[nH]c2ccc(F)cc12)C1COc2c(ccc3ncccc23)C1 (stereo not drawn),164
19,O=[N+]([O-])c1ccc(-c2ccc(-c3cn([C@H]4CN5CCC4CC5)nn3)s2)cn1,160
20,Oc1ccc2c(c1)C13CCCCC1(Cc1ccccc1)C(C2)N(CC1CC1)CC3 (stereo not drawn),> 280
21,COCCSc1ccccc1S(=O)(=O)NC(=O)Nc1nc(C)nc(OC)n1,127 to 128

# Now from value to compound:
row,melting point [°C],Compound
1,108,CCOC(=O)N1CCN(c2ccc(-n3cnn(C(C)(C)C(O)c4ccc(Cl)cc4)c3=O)cc2)CC1 (stereo not drawn)
2,192 to 193,CNC(=S)Nc1ccccc1-c1nc(C)c(-c2cccnc2)[nH]1
3,219,CC(C)n1nc(-c2cnc(N)nc2-c2ccncc2)ccc1=O
4,104 to 106,C=CC#CCn1c(-c2ccccc2)nc(C(F)(F)F)c(CC)c1=O
5,62 to 63,CCCCCCCCC1N(C)c2cccc3cccc(c23)N1C
6,192,CN1CCN(C(=O)c2ccc(N)cc2N)CC1
7,242 to 243,CCOC(=O)c1cnn(C)c1C(=O)Nc1ccn2nc(-c3ccccc3)nc2c1
8,199 to 200,O=C(NCc1ccncc1)c1cc2ccnc(NCc3ccccc3)c2[nH]1
9,116,O=C1C(=O)N(c2ccc(Cl)c(Cl)c2)C(=O)N1c1cccc(C(F)(F)F)c1
10,188 to 189,CC(C)(O)CCn1c2ccccc2c2cc(NC(=O)c3ccccc3C(F)(F)F)ccc21
11,263 to 265,CCn1c(=O)oc2cc(N3C[C@H](C(=O)NC)OC3=O)ccc21
12,82 to 86,COC(=O)NC(=N)CC(C)C
13,219 to 220,O=C(O)c1ccc(OCCNC(=O)c2ccc(Cl)cc2)cc1
14,106 to 107,CC(C)(NC(=O)Cc1cccc2ccccc12)C(O)c1ccccc1 (stereo not drawn)
15,144 to 145,OCC1OC(n2c(Cl)c(-c3ccsc3)c3cc(Cl)c(Cl)cc32)CC1O (stereo not drawn)
16,180 to 181,Cc1nc(-c2ccc(C(F)(F)F)cc2)sc1CN(C)c1ccc(OCC(=O)O)c(C(F)(F)F)c1
17,175 to 177,O=C1N(Cc2ccc(C(F)(F)F)o2)c2ccccc2C12COc1cc3c(nc12)OCO3 (stereo not drawn)

row,melting point [°C],Compound
1,136 to 138,COc1ccc(C(=O)Nc2cc(NC(=O)c3cccc(Br)c3)ccc2C)cc1OC
2,91 to 93,CCCOc1ccc(CSc2nc(SC)n(CC)c(=O)c2C)cc1
3,90 to 92,CCOC(=O)/C=C/c1ccc(OCC)nc1Oc1ccc(Cl)cc1Cl
4,132 to 136,CC(Cc1ccc(OCC(=O)O)cc1)NS(=O)(=O)c1ccc(Cl)cc1 (stereo not drawn)
5,277 to 279,O=C(O)c1ccc2cc(-c3ccc(OCCCO)c(C45CC6CC(CC(C6)C4)C5)c3)ccc2c1
6,230,Cc1ccc(/C=C/c2ccc(Cl)cc2[N+](=O)[O-])c([N+](=O)[O-])c1
7,182,COc1cc2cc(C(=O)OCc3ccccc3)[nH]c2cn1
8,55 to 60,CC(C)(CS(=O)(=O)c1ccc(Cl)cc1)C(=O)C(Oc1ccc(Cl)cc1)n1cncn1 (stereo not drawn)
9,232 to 233,CCC(CC)Cn1c(=O)c(=O)[nH]c2cc(Cl)c([N+](=O)[O-])cc21
10,166 to 171,CC1(C)CCc2ccc(C(=O)O)cc2CC1
11,> 300,CC(=O)Nc1nc(O)c2cc(C=Cc3ccc(C(=O)O)cc3)cnc2n1
12,60 to 62,COC1=C(OC)C(=O)C(CN2CCOCC2)=C(C)C1=O
13,78,CN(C)CCC1=Cc2ccccc2N(C)c2ccccc21
14,164 to 165,COc1cncnc1N1CCN(CCCc2c[nH]c3ccc(CN(C)S(C)(=O)=O)cc23)CC1
15,136 to 137,COc1cccc2c1nc(C(F)F)n2-c1nc(Nc2ccc(N(C)C)nc2)nc(N2CCOCC2)n1
16,75 to 77,CC(C)(CO)CCCCCCC(O)CCCCCCC(C)(C)CO
